Source: ChEMBL document CHEMBL4145553, “Design, synthesis, and biological evaluation of novel amide and hydrazide based thioether analogs targeting Histone deacteylase (HDAC) enzymes” (Eur J Med Chem, 2018)

Experiments:
Malme-3M = assay: Growth inhibition of human MALME-3M cells assessed as cell growth at 10^-6 M incubated for 48 hrs by sulforhodamine B assay relative to control; format: functional; conditions: read-out: Activity
UACC-257 [1] = assay: Growth inhibition of human UACC257 cells assessed as cell growth at 10^-7 M incubated for 48 hrs by sulforhodamine B assay relative to control; format: functional; conditions: UACC-257, 48 h, read-out: Activity
BT-549 = assay: Growth inhibition of human BT549 cells assessed as cell growth at 10^-8 M incubated for 48 hrs by sulforhodamine B assay relative to control; format: functional; conditions: BT-549, 48 h, read-out: Activity
NCI-H460 = assay: Growth inhibition of human NCI-H460 cells assessed as cell growth at 10^-4 M incubated for 48 hrs by sulforhodamine B assay relative to control; format: functional; conditions: NCI-H460, 48 h, read-out: Activity
OVCAR-3 = assay: Growth inhibition of human OVCAR3 cells assessed as cell growth at 10^-6 M incubated for 48 hrs by sulforhodamine B assay relative to control; format: functional; conditions: OVCAR-3, 48 h, read-out: Activity
SW-620 = assay: Growth inhibition of human SW620 cells assessed as cell growth at 10^-4 M incubated for 48 hrs by sulforhodamine B assay relative to control; format: functional; conditions: SW-620, 48 h, read-out: Activity
CAKI-1 [2] = assay: Growth inhibition of human Caki1 cells assessed as cell growth at 10^-4 M incubated for 48 hrs by sulforhodamine B assay relative to control; format: functional; conditions: CAKI-1, 48 h, read-out: Activity
ACHN = assay: Growth inhibition of human ACHN cells incubated for 48 hrs by sulforhodamine B assay; format: functional
CAKI-1 [3] = assay: Growth inhibition of human Caki1 cells assessed as cell growth at 10^-5 M incubated for 48 hrs by sulforhodamine B assay relative to control; format: functional; conditions: CAKI-1, 48 h, read-out: Activity
HL-60(TB) = assay: Growth inhibition of human HL-60(TB) cells assessed as cell growth at 10^-5 M incubated for 48 hrs by sulforhodamine B assay relative to control; format: functional; conditions: HL-60, 48 h, read-out: Activity
SNB-19 = assay: Growth inhibition of human SNB19 cells incubated for 48 hrs by sulforhodamine B assay; format: functional; conditions: SNB-19, 48 h
A498 [4] = assay: Growth inhibition of human A498 cells assessed as cell growth at 10^-7 M incubated for 48 hrs by sulforhodamine B assay relative to control; format: functional; conditions: A498, 48 h, read-out: Activity
UACC-257 [5] = assay: Growth inhibition of human UACC257 cells assessed as cell growth at 10^-8 M incubated for 48 hrs by sulforhodamine B assay relative to control; format: functional; conditions: UACC-257, 48 h, read-out: Activity
RXF 393 [6] = assay: Growth inhibition of human RXF393 cells assessed as cell growth at 10^-7 M incubated for 48 hrs by sulforhodamine B assay relative to control; format: functional; conditions: RXF 393, 48 h, read-out: Activity
RPMI-8226 = assay: Growth inhibition of human RPMI8226 cells assessed as cell growth at 10^-6 M incubated for 48 hrs by sulforhodamine B assay relative to control; format: functional; conditions: RPMI-8226, 48 h, read-out: Activity
KM12 = assay: Growth inhibition of human KM12 cells incubated for 48 hrs by sulforhodamine B assay; format: functional; conditions: KM12, 48 h
Histone deacetylase 1 = Histone deacetylase 1 (Homo sapiens, UniProt Q13547); assay: Inhibition of human HDAC1 by ELISA
SK-MEL-28 = assay: Growth inhibition of human SK-MEL-28 cells assessed as cell growth at 10^-5 M incubated for 48 hrs by sulforhodamine B assay relative to control; format: functional; conditions: SK-MEL-28, 48 h, read-out: Activity
RXF 393 [7] = assay: Growth inhibition of human RXF393 cells incubated for 48 hrs by sulforhodamine B assay; format: functional; conditions: RXF 393, 48 h
A549 = assay: Growth inhibition of human A549/ATCC cells assessed as cell growth at 10^-7 M incubated for 48 hrs by sulforhodamine B assay relative to control; format: functional; conditions: A549, 48 h, read-out: Activity
UO-31 = assay: Growth inhibition of human UO31 cells assessed as cell growth at 10^-4 M incubated for 48 hrs by sulforhodamine B assay relative to control; format: functional; conditions: UO-31, 48 h, read-out: Activity
OVCAR-8 = assay: Growth inhibition of human OVCAR8 cells incubated for 48 hrs by sulforhodamine B assay; format: functional; conditions: OVCAR-8, 48 h
HT-29 = assay: Growth inhibition of human HT-29 cells assessed as cell growth at 10^-6 M incubated for 48 hrs by sulforhodamine B assay relative to control; format: functional; conditions: HT-29, 48 h, read-out: Activity
NCI-H322M = assay: Growth inhibition of human NCI-H322M cells incubated for 48 hrs by sulforhodamine B assay; format: functional
SN12C = assay: Growth inhibition of human SN12C cells assessed as cell growth at 10^-7 M incubated for 48 hrs by sulforhodamine B assay relative to control; format: functional; conditions: read-out: Activity
U-251 = assay: Growth inhibition of human U251 cells incubated for 48 hrs by sulforhodamine B assay; format: functional; conditions: U-251, 48 h
T47D [8] = assay: Growth inhibition of human T47D cells assessed as cell growth at 10^-4 M incubated for 48 hrs by sulforhodamine B assay relative to control; format: functional; conditions: read-out: Activity
A498 [9] = assay: Growth inhibition of human A498 cells assessed as cell growth at 10^-4 M incubated for 48 hrs by sulforhodamine B assay relative to control; format: functional; conditions: A498, 48 h, read-out: Activity
MCF7 = assay: Growth inhibition of human MCF7 cells assessed as cell growth at 10^-5 M incubated for 48 hrs by sulforhodamine B assay relative to control; format: functional; conditions: MCF7, 48 h, read-out: Activity
T47D [10] = assay: Growth inhibition of human T47D cells assessed as cell growth at 10^-6 M incubated for 48 hrs by sulforhodamine B assay relative to control; format: functional; conditions: read-out: Activity
[11] = read-out: LC50 (the source's name)
[12] = read-out: pLC50 (the source's name) (converted)

Chain of Histone deacetylase 1 (Q13547 whole entry): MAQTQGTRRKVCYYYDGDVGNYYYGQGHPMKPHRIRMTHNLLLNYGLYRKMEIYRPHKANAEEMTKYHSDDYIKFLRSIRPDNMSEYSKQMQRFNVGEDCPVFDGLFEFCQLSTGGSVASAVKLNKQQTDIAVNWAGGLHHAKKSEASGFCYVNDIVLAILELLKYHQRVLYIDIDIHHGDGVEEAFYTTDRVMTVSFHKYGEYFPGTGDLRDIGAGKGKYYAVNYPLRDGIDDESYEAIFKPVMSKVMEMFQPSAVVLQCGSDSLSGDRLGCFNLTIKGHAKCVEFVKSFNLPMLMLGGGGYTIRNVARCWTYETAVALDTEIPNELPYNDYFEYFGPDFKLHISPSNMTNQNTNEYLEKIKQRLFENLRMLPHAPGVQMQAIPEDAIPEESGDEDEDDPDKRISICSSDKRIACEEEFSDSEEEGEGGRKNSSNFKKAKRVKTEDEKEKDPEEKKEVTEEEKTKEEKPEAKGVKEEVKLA

Work on CCS/C(Nc1ccccc1)=C(\C#N)C(=O)Nc1ccc(OC)cc1 yielded a growth at 1 µM (Malme-3M) of 79%, a growth at 0.1 µM (UACC-257 [1]) of 95% and a growth at 0.01 µM (BT-549) of 98%. It also gave a growth at 100 µM (NCI-H460) of -9%, a growth at 1 µM (OVCAR-3) of 90% and a growth at 100 µM (SW-620) of 14%. It also gave a growth at 100 µM (CAKI-1 [2]) of 18%, a GI50 (ACHN; read-out: GI50) of 5.04 µM and a CC50 (ACHN; [11]) greater than 100 µM. The TGI (ACHN; read-out: TGI) was greater than 100 µM, the GI50 (ACHN; read-out: pGI50 (converted)) was 5.01 µM and the CC50 (ACHN; [12]) was greater than 100 µM. The TGI (ACHN; read-out: pTGI) was greater than 100 µM, the growth at 10 µM (CAKI-1 [3]) was 29% and the growth at 10 µM (HL-60(TB)) was 7%. For the same compound, the GI50 (SNB-19; read-out: GI50) was 3.55 µM, the CC50 (SNB-19; [11]) was greater than 100 µM and the TGI (SNB-19; read-out: TGI) was greater than 100 µM. For the same compound, the GI50 (SNB-19; read-out: pGI50 (converted)) was 3.55 µM, the CC50 (SNB-19; [12]) was greater than 100 µM and the TGI (SNB-19; read-out: pTGI) was greater than 100 µM. The growth at 0.1 µM (A498 [4]) was 90%, the growth at 0.01 µM (UACC-257 [5]) was 101% and the growth at 0.1 µM (RXF 393 [6]) was 100%. The growth at 1 µM (RPMI-8226) was 79%, the GI50 (KM12; read-out: GI50) was 2.8 µM and the CC50 (KM12; [11]) was greater than 100 µM. The TGI (KM12; read-out: TGI) was greater than 100 µM, the GI50 (KM12; read-out: pGI50 (converted)) was 2.82 µM and the CC50 (KM12; [12]) was greater than 100 µM. The TGI (KM12; read-out: pTGI) was greater than 100 µM, the IC50 (Histone deacetylase 1) was 0.038 µM and the growth at 10 µM (SK-MEL-28) was 53%. The GI50 (RXF 393 [7]; read-out: GI50) was 2.24 µM, the CC50 (RXF 393 [7]; [11]) was greater than 100 µM and the TGI (RXF 393 [7]; read-out: TGI) was 7.86 µM. For the same compound, the GI50 (RXF 393 [7]; read-out: pGI50 (converted)) was 2.24 µM, the CC50 (RXF 393 [7]; [12]) was greater than 100 µM and the TGI (RXF 393 [7]; read-out: pTGI (converted)) was 7.94 µM. The growth at 0.1 µM (A549) was 94%, the growth at 100 µM (UO-31) was 16% and the GI50 (OVCAR-8; read-out: GI50) was 4.37 µM. The CC50 (OVCAR-8; [11]) was greater than 100 µM, the TGI (OVCAR-8; read-out: TGI) was greater than 100 µM and the GI50 (OVCAR-8; read-out: pGI50 (converted)) was 4.37 µM. The CC50 (OVCAR-8; [12]) was greater than 100 µM, the TGI (OVCAR-8; read-out: pTGI) was greater than 100 µM and the growth at 1 µM (HT-29) was 99%. For the same compound, the GI50 (NCI-H322M; read-out: GI50) was 5.81 µM, the CC50 (NCI-H322M; [11]) was greater than 100 µM and the TGI (NCI-H322M; read-out: TGI) was greater than 100 µM. It also gave a GI50 (NCI-H322M; read-out: pGI50 (converted)) of 5.75 µM, a CC50 (NCI-H322M; [12]) greater than 100 µM and a TGI (NCI-H322M; read-out: pTGI) greater than 100 µM. The growth at 0.1 µM (SN12C) was 97%, the GI50 (U-251; read-out: GI50) was 4.42 µM and the CC50 (U-251; [11]) was greater than 100 µM. For the same compound, the TGI (U-251; read-out: TGI) was greater than 100 µM, the GI50 (U-251; read-out: pGI50 (converted)) was 4.47 µM and the CC50 (U-251; [12]) was greater than 100 µM. The TGI (U-251; read-out: pTGI) was greater than 100 µM, the growth at 100 µM (T47D [8]) was 3% and the growth at 100 µM (A498 [9]) was -12%. It also gave a growth at 10 µM (MCF7) of 15% and a growth at 1 µM (T47D [10]) of 88%.
